# Reference: paper PMC6260619, “Selective Cytotoxicity of Goniothalamin against Hepatoblastoma HepG2 Cells” (Molecules, 2011)
# Key:
# Chang cells [1] = assay: Trypan blue dye exclusion viable cell count, Chang; type: cell-based
# Procedure: As supported by MTT and LDH results, goniothalamin inhibited cell proliferation towards HepG2 in a time- and dose-dependent manner as shown in the BrdU incorporation ELISA method. The effects of goniothalamin on HepG2 and Chang cell growth were also analyzed by viable cell counts using trypan blue dye exclusion assay for 24, 48 and 72 hours after treatment with different doses of goniothalamin. […] The ratio between viable cell numbers in goniothalamin-treated cells and control cells was reported as the Viablity Index (VI, Figure 5A and Figure 5B).
# A half mL aliquot of cell suspension (obtained from treated and non-treated HepG2 and Chang cells), was mixed with 0.5 mL of 0.4% trypan blue dye and left for 5 min at room temperature). The cells were counted using the hemacytometer and the percentage of dead cells was determined.
# Chang cells [2] = assay: BrdU cell proliferation ELISA, Chang; type: cell-based, human
# Procedure: The inhibition of goniothalamin on cellular DNA synthesis in Chang cells was also measured by BrdU incorporation.
# (§1) To confirm anti-proliferative effects in goniothalamin-treated cells, BrdU cell proliferation kit was used. HepG2 and Chang cells were seeded at 1.5 × 10^5 cells/mL in a final volume of 100 μL in a 96-well culture dish and incubated overnight to allow the cells to adhere to the dish. Each sample was assayed in triplicate. Besides, the control samples include a blank (no cells) and background (cells without BrdU) was also prepared. […] Then, BrdU label (20 μL, diluted by 1/2,000 in media) was added to each well and incubated for 24 h at 37 °C. The media was discarded and replaced by fix/denaturing solution (200 μL). The plate was incubated for 30 min at room temperature. The fix/denaturing solution was removed by inverting the plate. Then, BrdU antibody (100 μL, diluted by 1/100 in dilution buffer) was added to each well and left for 1 hour at room temperature. The cells were washed 3 times with wash buffer. After that, secondary antibody (100 μL, anti-mouse IgG HRP conjugated) was added to each well for 30 min. The washing step was done three times with wash buffer and once with distilled water. The distilled water was removed and substrate solution (100 μL) was added to each well. The plate was left for 15 min at room temperature in the dark condition. Finally, stop solution (100 μL) was added to the wells and absorbance measured at 450–540 nm.
# HepG2 cells [3] = assay: Cell cycle PI analysis by flow cytometry, HepG2; type: cell-based, human
# Procedure: The ability of a substance to affect specific phases of the cell cycle may provide clues as to its mechanism(s) of action. To determine the effects of goniothalamin on the cell cycle, HepG2 cells were treated with IC50 levels of goniothalamin (determined from the MTT assay) for 24, 48 and 72 hours, respectively. The cells were stained with PI and the DNA contents analyzed by flow cytometry.
# The treated cells were trypsinized and washed with PBS. After centrifugation, the supernatant was removed. Then, 1 × 10^6 cells were harvested and fixed in ice-cold ethanol (70%). The fixed cells were centrifuged at high speed (180 × g) for 10 minutes to adequately pellet down the cells that were suspended in the ethanol. The pellet was washed by the ice-cold PBS and then centrifuged again at 180 × g for 10 minutes. The final pellet was resuspended with 1 mL of RNase and incubated at 37 °C for 30 minutes. At the end of incubation, DNA binding dye PI (1 mg/mL) was added to give a final concentration of 50 µg/mL. The mixture was incubated at room temperature for 10 min in the dark. Data acquisition and analysis were performed in by flow cytometry FACS Calibur flow cytometer (Becton Dickinson, Franklin Lakes, NJ, USA) using CellQuest 3.3 software.
# HepG2 cells [4] = assay: BrdU cell proliferation ELISA, HepG2; type: cell-based, human
# Procedure: To further confirm the potential of goniothalamin-induced cell death HepG2 cells, a BrdU cell proliferation assay was performed. The cell proliferation percentage was measured by the incorporation of the thymidine analogue bromodeoxyuridine into DNA. In untreated HepG2, the absorbances (OD) at 450 nm wavelength were 1.445, 2.188 and 2.553 for 24, 48 and 72 hours, respectively. The cell proliferation rate was reduced in a concentration dependent manner after the addition of goniothalamin, compared to untreated control cells after all the times (Figure 3). […] Inhibition of DNA synthesis at the highest concentration (150 µM) is also time-dependent and is the most severe.
# as §1
# [5] = HepG2, 24h, at IC50 (goniothalamin 9.2 µM; doxorubicin 2.2 µM)
# [6] = HepG2, 48h, at IC50 (goniothalamin 8.3 µM; doxorubicin 4.3 µM)
# [7] = HepG2, 72h, at IC50 (goniothalamin 4.6 µM; doxorubicin […])
smiles,measurement,setting,value
"O=C1C=CC[C@H](/C=C/c2ccccc2)O1 [Goniothalamin, 5-hydroxy-7-phenylhepta-2,6-dienoic acid lactone]",Viability Index,"Chang cells [1]; at IC50, 72 hours",62 ± 4.36%
same,"cytotoxicity (cell count, trypan blue)",Chang cells [1]; doses comparable to 2.3 µM,no obvious cytotoxicity
same,percentage of cells incorporating BrdU in comparison with untreated cells,"Chang cells [2]; IC50, 24 hours",62.4%
same,percentage of cells incorporating BrdU in comparison with untreated cells,"Chang cells [2]; IC50, 72 hours",23.5%
same,decrease in cell proliferation compared to untreated cells (BrdU),"Chang cells [2]; lowest concentration (2.3 µM), 72 hours",2%
same,cell proliferation retained (BrdU),"Chang cells [2]; lowest concentration (2.3 µL as printed), 72 hours",97.6%
same,G0/G1,HepG2 cells [3]; [5],68.92 ± 1.27%
same,G2+M,HepG2 cells [3]; [5],5.94 ± 0.22%
same,S,HepG2 cells [3]; [5],7.68 ± 0.12%
same,SubG0/G1,HepG2 cells [3]; [5],17.44 ± 1.67%
same,G0/G1,HepG2 cells [3]; [6],39.71 ± 3.50%
same,G2+M,HepG2 cells [3]; [6],5.67 ± 4.13%
same,S,HepG2 cells [3]; [6],8.03 ± 0.29%
same,SubG0/G1,HepG2 cells [3]; [6],46.59 ± 2.79%
same,G0/G1,HepG2 cells [3]; [7],31.79 ± 5.82%
same,G2+M,HepG2 cells [3]; [7],2.31 ± 4.19%
same,S,HepG2 cells [3]; [7],7.07 ± 0.18%
same,SubG0/G1,HepG2 cells [3]; [7],58.83 ± 2.09%
same,SubG0/G1,"HepG2 cells [3]; HepG2, 72h, at IC50 (goniothalamin 4.6 µM; doxorubicin […]), listed as goniothalamin",59%
same,OD value at 450 nm (BrdU incorporation),"HepG2 cells [4]; HepG2, IC50 concentration, 24 hours, untreated 1.445",0.635
same,OD value at 450 nm (BrdU incorporation),"HepG2 cells [4]; HepG2, IC50 concentration, 72 hours, untreated 2.553",0.372
same,cell proliferation as compared to control (BrdU),"HepG2 cells [4]; HepG2, lowest concentration (2.3 µL as printed), 72 hours",19.8%
same,OD value at 450 nm (BrdU incorporation),"HepG2 cells [4]; HepG2, lowest concentration, 72 hours, untreated 2.553",0.505
